Results on 5 compounds are retold here after patent US10137081B2, “Device and method for sustained release of antipsychotic medications” (DELPOR, INC., priority 2012, dated 2018).

The conditions of series [1]: for period of constant, zero-order in vitro release of risperidone: FIGS. 4, 5.
Protocol: Singly capped devices were weighed and tared on a conventional laboratory balance. The open end of each device was fitted with a small funnel, and each salt form of drug to be tested was loaded into the reservoir in small (about 10-about 50 mg) portions. When necessary, each added portion of solid was tamped down to the base of the reservoir prior to the next addition. This process was repeated until a specific loading target was met (generally about 250-500 mg). The filled reservoir was then capped with either a closed PEEK cap or a cap configuration identical to that used on the first end of the device, vide supra.
The assembled devices were weighed and then loaded into a custom-built vacuum hydrator. The air space within each device was evacuated by placing the device in a vacuum (<0.5 torr) for no less than 30 min. The devices were then back-filled with phosphate-buffered saline (pH 7.4) applied with a back pressure of 5-10 psi above atmospheric pressure for at least one hour. The devices were then retrieved from the hydration apparatus, wiped with a tissue to absorb any external fluid, weighed, and transferred to petri dishes containing buffer for the drug output assay, vide infra. The success of the hydration step was determined by the measuring the increase in mass before and after hydration.
The dish was placed in an incubator with pCO2 adjusted to give an average buffer pH of 7.4. Approximately once per day, the dishes were retrieved from the incubator. Each device was transferred to a new dish containing an equivalent amount of buffer and then returned to the incubator.
The retained receiving buffer samples were acidified with 3.0 mL of 0.1 M HCl and allowed to stand for approximately 1 hour. An aliquot of each sample (generally 100 μL) was transferred to a single well of a UV-transparent 96 well plate along with 100 μL of 0.1 M HCl diluent. After plating, the absorbance of each well was recorded at 270 nm using a Molecular Devices spectrophotometer. The absorbances were converted into concentrations (and ultimately output mass per day) by comparison to a standard curve. Samples that absorbed outside of the linear range of the instrument were diluted and re-read, as appropriate.
The nature of series [2]: In vivo pharmacokinetics, device as subcutaneous implant in rats. How it is done:
Six male Sprague Dawley rats (Charles River; Hollister, Calif.) of an initial weight of approximately 250-280 grams were administered a device as a subcutaneous implant. This study complied with all applicable sections of the Final Rules of the Animal Welfare Act regulations (9 CFR), the Public Health Service Policy on Humane Care and Use of Laboratory Animals, the Guide for the Care and Use of Laboratory Animals. […] All animals were weighed and the hair was clipped and removed from the dorsal area prior to dose administration. All animals were anesthetized with isoflurane via an induction chamber and maintained in the appropriate plane of anesthesia using isoflurane inhalant (1-3%) and a vaporizer. The dorsal area of the animal was prepared for implantation using appropriate surgical scrub and ethanol. Aseptic technique was used during implantation. A small incision was made in the skin and a single device implant gently placed in the dorsal subcutaneum using a sterile implanter tool. Following administration, the skin incision was closed with sterile suture. The animals were given an appropriate dose of analgesia (see table below) and allowed to recover.
The animals were euthanized following the blood collection.
Body weights were measured on the day of test article administration and weekly thereafter.
Blood volumes of approximately 0.8 to 1.0 mL were collected at each time point, placed into Vacutainer tubes containing EDTA, and kept on wet ice until processing. For preparation of plasma, tubes were mixed by gentle inversion several times and centrifuged under refrigeration (approximately 2-8° C.) for approximately 15 minutes at approximately 2800 rpm (˜1000×g). Plasma was split into two approximately equal aliquots and transferred to labeled screw-top tubes for storage, and stored at approximately (−60° C. to −80° C.) until shipment to the analytical lab.
Using aseptic technique, the implant site was opened up and a photo of the implant field was taken. Blood draws were made four hours and 24 hours after implant removal. Any observations were recorded.
Bioanalytical measurements of active moiety (risperidone+9-OH risperidone) were conducted by Integrated Analytical Solutions (Berkeley, Calif.) using an LCMS method validated to resolve risperidone and 9-OH risperidone in rat plasma with a lower limit of quantitation (LLQ) of 0.5 ng/mL for each analyte.
Plasma concentrations were normalized to initial body weight for each time point and plotted versus time.

For series [3] the following is noted: general statement in the description; cited from earlier work.
Where [4] appears, read: subcutaneous implant, FIGS. 7, 8.

On to risperidone hexanoate, for which, in series [1] (Example 6, devices 172, 180, 360 and 364, followed for 90-100 days, FIG. 5), the “period of in vitro release of risperidone within the therapeutic range” value is no less than 90 days. For the same compound, the “period of in vitro release at a constant rate within the therapeutic range” value in series [1] (Example 7, followed for 6 months, FIG. 6) is on record as 6 months. Moreover, the “period of constant, zero-order in vitro release of risperidone” value in series [1] is 30 to 90 days. Besides, the “examination of the implant site” value in series [2] (after 118 days of subcutaneous implantation) was “no evidence of inflammation or other adverse tissue responses”. Also, the “plasma level of active moiety following removal of the device” value in series [2] (below LLQ, 4 h and 24 h after implant removal at day 118) is recorded as less than 0.5 ng/mL. The “plasma level of active moiety (risperidone plus 9-OH risperidone)” value in series [2] (subcutaneous implant, 290-300 mg salt per device, normalized to initial body weight, constant level after 4 hour burst) is recorded as “about 20 ng/mL”. Moreover, the “period of constant plasma level of active moiety” value in series [2] (setting [4]) was 118 days; in series [2] (subcutaneous implant, until device removal, FIG. 7) it was “about 4 months”.

In the case of dodecanoate, the “solubility in water” value in series [3] is given as “not appreciably more soluble than the free base form”.

As for `Cc1nc2n(c(=O)c1CCN1CCC(c3noc4cc(F)ccc34)CC1)CCCC2` [risperidone free base, risperidone, reference compound], the “solubility in water” value in series [3] is “extremely insoluble in water”.

As to `Cc1nc2n(c(=O)c1CCN1CCC(c3noc4cc(F)ccc34)CC1)CCCC2.O=C(O)c1ccccc1` [risperidone benzoate, reference compound], the “in vitro output pattern relative to the therapeutic window” value in series [1] (FIG. 2, upper limit 2.5 mg/day) is given as “rises to high levels before falling”.

Consider `CCCCC(=O)O.Cc1nc2n(c(=O)c1CCN1CCC(c3noc4cc(F)ccc34)CC1)CCCC2` [risperidone pentanoate], for which the “initial period in which in vitro output is slightly above the therapeutic window” value in series [1] (FIG. 4, upper limit 2.5 mg/day) turned out to be 2 weeks. Further, the “period of constant, zero-order in vitro release of risperidone” value in series [1] is on record as “at least 60 days”. The “period of constant plasma level of active moiety” value in series [2] (setting [4]) is reported as “greater than 60 days”.
